ChEMBL document CHEMBL1153372, “A selective matrix metalloprotease 12 inhibitor for potential treatment of chronic obstructive pulmonary disease (COPD): discovery of (S)-2-(8-(methoxycarbonylamino)dibenzo[b,d]furan-3-sulfonamido)-3-methylbutanoic acid (MMP408)” (J Med Chem, 2009)

Assays:
[1] = biological target: Collagenase 3 (Homo sapiens, UniProt P45452); assay: Inhibition of human recombinant MMP13 expressed in Escherichia coli
[2] = Cmax in C57BL/6 mouse at 30 mg/kg, po; type: ADME, organism-based; design: dose 30 mg/kg, route oral; conditions: in vivo
[3] = AUC in C57BL/6 mouse at 30 mg/kg, po; type: ADME, organism-based; design: dose 30 mg/kg, route oral; conditions: plasma
[4] = Oral bioavailability in C57BL/6 mouse at 30 mg/kg; type: ADME, organism-based; conditions: in vivo
[5] = Volume of distribution at steady state in C57BL/6 mouse at 2 mg/kg, iv; type: ADME, organism-based; design: dose 2 mg/kg, route intravenous; conditions: in vivo, read-out: Vdss
[6] = Clearance in C57BL/6 mouse at 2 mg/kg, iv; type: ADME, organism-based; design: dose 2 mg/kg, route intravenous; conditions: in vivo
[7] = Half life in C57BL/6 mouse at 30 mg/kg, po; type: ADME, organism-based; design: dose 30 mg/kg, route oral; conditions: in vivo

SMILES | IC50 [1] [nM] | also measured
CC(C)[C@@H](NS(=O)(=O)c1ccc2oc3ccccc3c2c1)C(=O)O | 2500 | 
COC(=O)Nc1cc2oc3ccc(S(=O)(=O)N[C@@H](C(=O)O)C(C)C)cc3c2cc1Br | 25400 | 
CC(C)[C@@H](NS(=O)(=O)c1ccc2oc3cc(NS(=O)(=O)c4ccccc4)ccc3c2c1)C(=O)O | 6000 | 
Cc1noc(C)c1S(=O)(=O)Nc1ccc2c(c1)oc1ccc(S(=O)(=O)N[C@@H](C(=O)O)C(C)C)cc12 | 34000 | 
CC(C)OC(=O)Nc1ccc2c(c1)oc1ccc(S(=O)(=O)N[C@@H](C(=O)O)C(C)C)cc12 | 500 | 
CC(C)[C@@H](NS(=O)(=O)c1ccc2oc3cc(NS(C)(=O)=O)ccc3c2c1)C(=O)O |  | Cmax [2]: 103 ng/mL; AUC [3]: 245 ng·h/mL; bioavailability [4]: 7%; Vd [5]: 1.9 L/kg; clearance [6]: 141 mL/min/kg; half-life [7]: 2 h
CC(C)[C@H](NS(=O)(=O)c1ccc2c(c1)oc1ccc(NS(=O)(=O)CC(F)(F)F)cc12)C(=O)O | 670 | 
CC(C)[C@@H](NS(=O)(=O)c1ccc2oc3cc(NC(=O)Oc4ccccc4)ccc3c2c1)C(=O)O | 600 | 
COC(=O)Nc1cc2oc3ccc(S(=O)(=O)N[C@H](C(=O)O)C(C)C)cc3c2cc1Br | > 25000 | 

Further molecules by falling IC50 [1], results first:

IC50 [1] [nM] | SMILES | also measured
500 | COC(=O)Nc1ccc2c(c1)oc1ccc(S(=O)(=O)N[C@@H](C(=O)O)C(C)C)cc12 | Cmax [2]: 10600 ng/mL; AUC [3]: 21700 ng·h/mL; bioavailability [4]: 36%; Vd [5]: 1.6 L/kg; clearance [6]: 8.3 mL/min/kg; half-life [7]: 2.7 h
200 | CC(C)[C@H](NS(=O)(=O)c1ccc2c(c1)oc1ccc(NC(=O)Oc3ccc(F)cc3)cc12)C(=O)O | 
120 | CC(C)[C@@H](NS(=O)(=O)c1ccc2oc3cc(NS(=O)(=O)C(C)C)ccc3c2c1)C(=O)O | 
109 | CCCOC(=O)Nc1ccc2c(c1)oc1ccc(S(=O)(=O)N[C@@H](C(=O)O)C(C)C)cc12 | 
97 | CC(C)[C@H](NS(=O)(=O)c1ccc2c(c1)oc1cc(NC(=O)OCCF)ccc12)C(=O)O | 
93 | CC(C)[C@H](NS(=O)(=O)c1ccc2c(c1)oc1ccc(NS(C)(=O)=O)cc12)C(=O)O | 
